In patent publication US20100143441A1 (OsteoGeneX Inc., priority 2008, published 2010):

How the values were obtained:
SOST = SOST (Mus musculus, UniProt Q99P68); details: predetermined dose for a complete dosing schedule, micro-CT versus control mouse
Method: (§1) A general method of identifying SOST antagonists involves evaluating the effects of antagonist candidates on bone formation under controlled conditions. Preferably bone formation is determined using micro-CT techniques on live animals. Preferred animals include rodents, more preferred are primates. Femur, tibia and vertebrae bones are particularly useful subjects for such study.
Briefly, the test animal is treated with a predetermined dose of a SOST antagonist candidate.
This can be accomplished by any suitable method, but is preferably performed on live animals to analyze the bone mineral content. […] A SOST antagonist candidate suitable for use as a SOST antagonist is identified by noting significant bone formation in the test animal when compared to the control animal. Bone formation in the test bone(s) of the test animal can be 0.5%, 1, 5, 10, 20, 30, 40, 50, 60, 70, 80, 90, 100, 200, 300, 400, 500, 600, 700, 800, 900 or 1000% more bone formation than is present in the same bones of the control animal. More preferably, bone formation can be 20%, most preferably 30% or 40%. Where necessary, levels of bone formation can be calculated by determining the volume of bone formation present in each animal. Calculations can be performed by constructing a 3-dimensional image of the bone formation and calculating the volume from the image with the aid of e.g., histomorphometry. […]

Wnt pathway = details: Wnt+Sclerostin+2.5, 6.3, 12.5 or 25 ng nortriptyline; compared with Wnt only and Wnt+Sclerostin
Method: as §1

Sequence of SOST (Q99P68 24-211): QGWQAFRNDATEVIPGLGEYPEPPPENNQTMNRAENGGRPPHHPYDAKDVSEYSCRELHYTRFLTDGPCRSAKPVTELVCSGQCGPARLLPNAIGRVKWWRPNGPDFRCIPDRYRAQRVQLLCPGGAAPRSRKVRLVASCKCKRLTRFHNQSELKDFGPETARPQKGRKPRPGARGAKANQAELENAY

CNCCC=C1c2ccccc2CCc2ccccc21 [nortriptyline]
bone growth (quantity of bone formation present) (SOST): promoting bone growth | modulation of the Wnt pathway (Wnt pathway): modulating the Wnt pathway
